Assay results as given in ChEMBL document CHEMBL1145761 (Bioorg Med Chem Lett, 2003).
pKi: −log10 of the molar value.

biological target: Neuronal acetylcholine receptor; alpha4/beta2 (Rattus norvegicus, UniProt P09483+P12390); experiment: Affinity at alpha4-beta2 nACh receptors in rat brain (minus cerebellum) homogenates.; type: tissue-based
Sequence (P09483 whole entry): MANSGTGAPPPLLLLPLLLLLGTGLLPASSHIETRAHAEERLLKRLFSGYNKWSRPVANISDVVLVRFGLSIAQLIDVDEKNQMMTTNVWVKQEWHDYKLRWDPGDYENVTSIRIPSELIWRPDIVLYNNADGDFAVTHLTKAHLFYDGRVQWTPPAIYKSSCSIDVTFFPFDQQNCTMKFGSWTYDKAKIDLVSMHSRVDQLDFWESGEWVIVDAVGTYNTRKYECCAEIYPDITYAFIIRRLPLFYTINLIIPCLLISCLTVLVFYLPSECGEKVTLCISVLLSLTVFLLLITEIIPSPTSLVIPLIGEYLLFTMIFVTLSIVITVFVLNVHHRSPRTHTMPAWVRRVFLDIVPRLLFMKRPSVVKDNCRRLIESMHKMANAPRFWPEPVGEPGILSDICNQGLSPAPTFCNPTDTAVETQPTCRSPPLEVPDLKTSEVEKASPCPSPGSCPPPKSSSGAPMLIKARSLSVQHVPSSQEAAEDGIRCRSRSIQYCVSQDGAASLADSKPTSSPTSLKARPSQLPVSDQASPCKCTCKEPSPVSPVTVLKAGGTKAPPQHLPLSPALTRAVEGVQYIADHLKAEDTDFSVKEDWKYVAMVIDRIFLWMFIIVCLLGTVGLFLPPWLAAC
Sequence (P12390 whole entry): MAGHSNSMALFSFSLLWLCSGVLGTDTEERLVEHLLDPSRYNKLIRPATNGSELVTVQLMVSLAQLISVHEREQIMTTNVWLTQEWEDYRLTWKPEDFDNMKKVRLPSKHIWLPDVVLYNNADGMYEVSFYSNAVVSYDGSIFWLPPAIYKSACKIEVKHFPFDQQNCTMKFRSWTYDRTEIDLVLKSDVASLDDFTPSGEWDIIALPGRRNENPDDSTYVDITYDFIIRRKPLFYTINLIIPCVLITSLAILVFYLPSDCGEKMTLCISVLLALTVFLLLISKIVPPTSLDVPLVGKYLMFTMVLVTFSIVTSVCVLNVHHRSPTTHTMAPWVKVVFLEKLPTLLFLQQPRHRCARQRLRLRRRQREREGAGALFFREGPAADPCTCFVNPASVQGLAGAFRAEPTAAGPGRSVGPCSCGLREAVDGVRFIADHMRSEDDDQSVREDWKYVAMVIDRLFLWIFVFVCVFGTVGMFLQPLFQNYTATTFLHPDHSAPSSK

Compared with c1ccc(CN2CCCC2c2cccnc2)cc1 (stereo unspecified), CN1CCCC1c1ccc(-c2ccccc2)nc1 (stereo unspecified) is 1.41 log units lower in pKi: 6.44 for the first, 5.03 for the second. The first binds more tightly here.

CN1CCCC1c1ccc(Br)nc1 (stereo unspecified) and CN1CCCC1c1ccc(Cl)nc1 (stereo unspecified) are within 0.2 log units of each other in pKi: 9.30 for the first, 9.22 for the second.

Going from CN1CCN=C1Cc1ccc(Br)nc1 to CN1CCN=C1Cc1ccc(Cl)nc1, the pKi rises from 8.14 to 8.48 (0.34 log units). The second binds more tightly here.

Compared with CN1CCCC1c1cnc2ccccc2c1 (stereo unspecified), CN1CCN=C1Cc1cnc2ccccc2c1 is 0.54 log units lower in pKi: 7.96 for the first, 7.42 for the second.

c1cncc(C2=NCCC2)c1 [MYOSMINE] and CN1CCN=C1Cc1ccc(-c2ccccc2)nc1 are within 0.2 log units of each other in pKi: 5.48 for the first, 5.49 for the second.

COc1ccc(CC2=NCCN2C)cn1 showed a pKi of 7.34.
